This note sets out measurements from patent publication US20190275012A9, “SUBSTITUTED THIAZOLO-PYRIDINE COMPOUNDS AS MALT1 INHIBITORS” (Lupin Limited, priority 2016, published 2019).

By IC50 is commonly meant the concentration needed to halve the response being measured.

One assay concerns the target T1, full length MALT1 enzyme (Homo sapiens, UniProt Q9UDY8).
T1 construct: a fluorescence based assay with full length MALT1 enzyme
T1 sequence (Q9UDY8 1-824): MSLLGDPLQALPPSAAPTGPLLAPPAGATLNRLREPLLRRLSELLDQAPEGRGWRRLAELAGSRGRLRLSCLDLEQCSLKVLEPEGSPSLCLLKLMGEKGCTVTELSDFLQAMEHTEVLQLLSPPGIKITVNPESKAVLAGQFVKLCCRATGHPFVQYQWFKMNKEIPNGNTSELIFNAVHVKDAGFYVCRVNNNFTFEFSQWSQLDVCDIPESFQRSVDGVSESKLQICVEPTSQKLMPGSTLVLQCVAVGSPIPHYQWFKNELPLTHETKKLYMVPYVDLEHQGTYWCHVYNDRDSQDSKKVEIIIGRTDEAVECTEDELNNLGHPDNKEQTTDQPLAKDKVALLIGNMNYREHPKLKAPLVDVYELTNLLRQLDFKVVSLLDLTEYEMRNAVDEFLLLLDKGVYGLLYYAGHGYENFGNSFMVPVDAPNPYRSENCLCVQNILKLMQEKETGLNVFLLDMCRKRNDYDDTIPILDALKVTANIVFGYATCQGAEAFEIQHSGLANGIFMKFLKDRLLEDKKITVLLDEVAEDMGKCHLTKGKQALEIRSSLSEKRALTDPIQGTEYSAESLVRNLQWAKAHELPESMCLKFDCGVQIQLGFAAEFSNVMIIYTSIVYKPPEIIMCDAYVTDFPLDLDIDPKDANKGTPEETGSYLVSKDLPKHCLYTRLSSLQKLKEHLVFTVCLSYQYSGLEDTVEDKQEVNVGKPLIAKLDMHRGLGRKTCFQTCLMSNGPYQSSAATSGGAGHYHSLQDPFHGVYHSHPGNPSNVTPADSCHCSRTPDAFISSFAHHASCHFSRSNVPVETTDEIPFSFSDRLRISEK
As to the kind of experiment: MALT1 biochemical assay (fluorescence based, Ac-Leu-Arg-Ser-Arg-AMC cleavage). To be noted: full length MALT1 protein, 2 h pre-incubation at RT, tetrapeptide substrate Ac-Leu-Arg-Ser-Arg-AMC, read-out: Malt 1 inhibition IC50. An outline of the steps:
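Full-length MALT1 (100-300 ng/well) was pre-incubated with compound for 2 h at RT, then 100 μM Ac-LRSR-AMC was added for 4-12 h. Buffer was 50 mM MES, 150 mM NaCl, 0.1% CHAPS, 1 M ammonium citrate, 10 mM DTT, pH 7, with 0.5% DMSO. IC50 was derived from AMC fluorescence (ex 360/em 460 nm).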

The test system of another assay is OCI-Ly-10 cells. In words: Anticancer assay (14 days), cell viability by CCK-8. The format is cell-based. Conditions: Homo sapiens, OCI-Ly10, 336 h, 14 days treatment, fresh treatment every 5th day, CCK-8 viability, read-out: Ly-10 (14d) inhibition IC50. The protocol: OCI-Ly-10 cells (UHN, Canada) seeded in culture media (IMDM+20% FBS) in 96-well plates were treated with various concentrations of the test compounds. Cells were treated for a period of 14 days (13-15 days depending on the confluency of cells) with fresh treatments every 5th day. After the first treatment, for all subsequent treatments, the cells were centrifuged, the spent media was removed and fresh media containing the test compound was added. Cell viability was assessed using CCK-8 kit (Dojindo Laboratories, China) as per manufacturer's instructions. Plates were read in colorimeter and absorbance was detected. (Detection at 450 nm; Background correction at 650 nm). % inhibition was calculated relative to the samples containing media with 0.1% DMSO alone as per the following formula

For assay [1], the system named is NF-kB transcriptional activity in HEK-293-NF-kB-Luc cell line overexpressing MALT1. As to the kind of experiment: NF-kB reporter assay (luciferase, MALT1 stably overexpressed). It counts as cell-based. To be noted: Homo sapiens, 24 h, HEK-293-NF-kB-Luc cells stably overexpressing MALT1, 24 h treatment, Bright Glo luminescence; read-out: NF-kB inhibition IC50. An outline of the steps: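 Inhibition of NF-κB activity was expressed relative to 0.1% DMSO wells, from luminescence after 10 min Bright Glo at ambient temperature. Compounds had been applied for 24 h to adhered MALT1-overexpressing HEK-293 NF-κB luciferase reporter cells.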
Background: In a reporter assay the amount or activity of a reporter protein is the signal.

Regarding `Cc1nc2c(C3CC3)c(NC(=O)Nc3cnc(-n4nccn4)c(Cl)c3)cnc2s1` [Compound 9, 1-(5-Chloro-6-(2H-1,2,3-triazol-2-yl)pyridin-3-yl)-3-(7-cyclopropyl-2-methylthiazolo[5,4-b]pyridin-6-yl)urea], the half-maximal inhibitory concentration (IC50) at full length MALT1 enzyme was in the range of 1 to 50 nM; in the assay with OCI-Ly-10 cells, 26 to 100 nM; in assay [1], 1 to 100 nM.
For the molecule `COc1cc(-n2nccn2)c(Cl)cc1NC(=O)Nc1cnc2sc(C)nc2c1C(C)OC` (single isomer, unassigned) [Compound 131b, 1-(5-Chloro-2-methoxy-4-(2H-1,2,3-triazol-2-yl)phenyl)-3-(7-(1-methoxyethyl)-2-methylthiazolo[5,4-b]pyridin-6-yl)urea], the half-maximal inhibitory concentration (IC50) lay within 1 to 50 nM at full length MALT1 enzyme and 0.1 to 25 nM in the assay with OCI-Ly-10 cells.
In the same order, the values of `CCC(C)c1c(NC(=O)Nc2cnc(-n3nccn3)c(Cl)c2)cnc2sc(C)nc12` (single isomer, unassigned) [Compound 157b, 1-(7-(sec-Butyl)-2-methylthiazolo[5,4-b]pyridin-6-yl)-3-(5-chloro-6-(2H-1,2,3-triazol-2-yl)pyridin-3-yl)urea] are 1 to 50 nM and 26 to 100 nM.
For the molecule `COC(c1c(NC(=O)Nc2cnc(-n3nccn3)c(C(F)(F)F)c2)cnc2sc(C)nc12)C1CC1` (single isomer, unassigned) [Compound 151b, 1-(6-(2H-1,2,3-Triazol-2-yl)-5-(trifluoromethyl)pyridin-3-yl)-3-(7-(cyclopropyl(methoxy)methyl)-2-methylthiazolo[5,4-b]pyridin-6-yl)urea], the IC50 fell in the range of 1 to 50 nM at full length MALT1 enzyme and 0.1 to 25 nM in the assay with OCI-Ly-10 cells.
Consider `COC(C)c1c(NC(=O)Nc2cnc(-n3cccn3)c(Cl)c2)cnc2sc(C)nc12` (single isomer, unassigned) [Compound 196b, (S) or (R)-1-(5-chloro-6-(1H-pyrazol-1-yl)pyridin-3-yl)-3-(7-(1-methoxyethyl)-2-methylthiazolo[5,4-b]pyridin-6-yl)urea], for which the IC50 at full length MALT1 enzyme is 1 to 50 nM; with OCI-Ly-10 cells, 26 to 100 nM.
In the same order, the values of `COC(c1c(NC(=O)Nc2cnc(-n3nccn3)c(Cl)c2)cnc2sc(C)nc12)C(C)(C)C` (single isomer, unassigned) [Compound 56b, 1-(5-chloro-6-(2H-1,2,3-triazol-2-yl)pyridin-3-yl)-3-(7-(1-methoxy-2,2-dimethylpropyl)-2-methylthiazolo[5,4-b]pyridin-6-yl)urea] are 1 to 50 nM and 26 to 100 nM.
Consider `COC(c1c(NC(=O)Nc2cnc(-n3nccn3)c(C(F)(F)F)c2)cnc2sc(C)nc12)C1CCC1` (stereo not drawn) [Compound 224b, 1-(6-(2H-1,2,3-Triazol-2-yl)-5-(trifluoromethyl)pyridin-3-yl)-3-(7-(cyclobutyl(methoxy)methyl)-2-methylthiazolo[5,4-b]pyridin-6-yl)urea], for which the half-maximal inhibitory concentration (IC50) in the assay with OCI-Ly-10 cells fell in the range of 0.1 to 25 nM; in assay [1], 1 to 100 nM.
In the same order, the values of `COc1ncc(NC(=O)Nc2cnc3sc(C)nc3c2N(C)CC(C)OC)cc1Cl` (stereo not drawn) [Compound 55a, 1-(5-Chloro-6-methoxypyridin-3-yl)-3-(7-((2-methoxypropyl)(methyl)amino)-2-methylthiazolo[5,4-b]pyridin-6-yl)urea] are 101 to 250 nM and 501 to 1500 nM.
For `COC(C)c1c(NC(=O)Nc2ccc(-n3cccn3)c(Cl)c2)cnc2sc(C)nc12` (single isomer, unassigned) [Compound 201b, (S) or (R)-1-(3-Chloro-4-(1H-pyrazol-1-yl)phenyl)-3-(7-(1-methoxyethyl)-2-methylthiazolo[5,4-b]pyridin-6-yl)urea], the IC50 was in the range of 1 to 50 nM at full length MALT1 enzyme and 26 to 100 nM in the assay on OCI-Ly-10 cells.
Take `COc1ccc(Cl)cc1NC(=O)Nc1cnc2sc(C)nc2c1C(C)OC` (single isomer, unassigned) [Compound 128b, 1-(5-Chloro-2-methoxyphenyl)-3-(7-(1-methoxyethyl)-2-methylthiazolo[5,4-b]pyridin-6-yl)urea]: the IC50 at full length MALT1 enzyme lay in the range of 51 to 100 nM; in the assay on OCI-Ly-10 cells, 26 to 100 nM.
Consider `CCOC(C)c1c(NC(=O)Nc2cnc(-n3nccn3)c(Cl)c2)cnc2sc(C)nc12` (racemic) [Compound 164, 1-(5-Chloro-6-(2H-1,2,3-triazol-2-yl)pyridin-3-yl)-3-(7-(1-ethoxyethyl)-2-methylthiazolo[5,4-b]pyridin-6-yl)urea], for which the IC50 in the assay with OCI-Ly-10 cells lay within 101 to 250 nM; in assay [1], 1 to 100 nM.
As for `COC(C)c1c(NC(=O)Nc2cnc(-n3ccnn3)c(C(F)F)c2)cnc2sc(C)nc12` (single isomer, unassigned) [Compound 206b, (S) or (R)-1-(5-(Difluoromethyl)-6-(1H-1,2,3-triazol-1-yl)pyridin-3-yl)-3-(7-(1-methoxyethyl)-2-methylthiazolo[5,4-b]pyridin-6-yl)urea], the half-maximal inhibitory concentration (IC50) with OCI-Ly-10 cells was 101 to 250 nM; in assay [1] it was 1 to 100 nM.
`O=C(Nc1cnc(-n2nccn2)c(Cl)c1)Nc1cnc2scnc2c1C1CC1` [Compound 35, 1-(5-Chloro-6-(2H-1,2,3-triazol-2-yl)pyridin-3-yl)-3-(7-cyclopropylthiazolo[5,4-b]pyridin-6-yl)urea]: the results for the IC50 (in the assay with OCI-Ly-10 cells; in assay [1]) were 26 to 100 nM and 1 to 100 nM, respectively.
With `COc1ncc(NC(=O)Nc2cnc3sc(C)nc3c2C(C)OC)cc1Cl` (single isomer, unassigned) [Compound 159a, 1-(5-Chloro-6-methoxypyridin-3-yl)-3-(7-(1-methoxyethyl)-2-methylthiazolo[5,4-b]pyridin-6-yl)urea], the IC50 at full length MALT1 enzyme fell in the range of 1 to 50 nM; in the assay on OCI-Ly-10 cells, 26 to 100 nM.
On the same counts, the results for `CCC(OC)c1c(NC(=O)Nc2cnc(-n3nccn3)c(C(F)(F)F)c2)cnc2sc(C)nc12` (single isomer, unassigned) [Compound 146b, 1-(6-(2H-1,2,3-Triazol-2-yl)-5-(trifluoromethyl)pyridin-3-yl)-3-(7-(1-methoxypropyl)-2-methylthiazolo[5,4-b]pyridin-6-yl)urea] are 1 to 50 nM and 0.1 to 25 nM.
Take `CCOc1nc(-n2nccn2)c(C(F)(F)F)cc1NC(=O)Nc1cnc2sc(C)nc2c1C(OC)C1CC1` (stereo not drawn) [Compound 226a, 1-(7-(Cyclopropyl(methoxy)methyl)-2-methylthiazolo[5,4-b]pyridin-6-yl)-3-(2-ethoxy-6-(2H-1,2,3-triazol-2-yl)-5-(trifluoromethyl)pyridin-3-yl)urea]: the half-maximal inhibitory concentration (IC50) in the assay with OCI-Ly-10 cells lay in the range of 26 to 100 nM; in assay [1], 1 to 100 nM.
As to `COCC(OC)c1c(NC(=O)Nc2cnc(OC)c(Cl)c2)cnc2sc(C)nc12` (stereo not drawn) [Compound 34a, 1-(5-chloro-6-methoxypyridin-3-yl)-3-(7-(1,2-dimethoxyethyl)-2-methylthiazolo[5,4-b]pyridin-6-yl)urea], the IC50 in the assay with OCI-Ly-10 cells was 101 to 250 nM; in assay [1] it was 101 to 500 nM.
In the same order, the values of `COCCN(C)c1c(NC(=O)Nc2cnc(-n3nccn3)c(Cl)c2)cnc2sc(C)nc12` [Compound 44, 1-(5-Chloro-6-(2H-1,2,3-triazol-2-yl)pyridin-3-yl)-3-(7-((2-methoxyethyl)(methyl)amino)-2-methylthiazolo[5,4-b]pyridin-6-yl)urea] are 101 to 250 nM and 101 to 500 nM.
Consider `COC(C)c1c(NC(=O)Nc2cnc(-n3nccn3)c(C(F)F)c2)cnc2sc(C)nc12` (single isomer, unassigned) [Compound 205b, (S) or (R)-1-(5-(Difluoromethyl)-6-(2H-1,2,3-triazol-2-yl)pyridin-3-yl)-3-(7-(1-methoxyethyl)-2-methylthiazolo[5,4-b]pyridin-6-yl)urea], for which the IC50 was in the range of 101 to 250 nM in the assay with OCI-Ly-10 cells and 101 to 500 nM in assay [1].
